pIC50: −log10 of the molar value. Converted amounts (≈) assume the structure as drawn. Each block holds one molecule with its values, some of them ahead of it. The source made the active and inactive calls. The calls are words filed in the database; no cut-off is given here.
What was measured:
Rhodotorula glutinis = assay: Antimicrobial activity against Rhodotorula glutinis DSM 10134 by serial dilution assay; format: functional, organism-based
Staphylococcus aureus = assay: Antimicrobial activity against Staphylococcus aureus DSM346 by serial dilution assay; format: functional
Bacillus subtilis = assay: Antimicrobial activity against Bacillus subtilis DSM 10 by serial dilution assay; format: functional
Mucor plumbeus = assay: Antimicrobial activity against Mucor plumbeus MUCL49355 by serial dilution assay; format: functional
Escherichia coli = assay: Antimicrobial activity against Escherichia coli harboring TolC mutant by serial dilution assay; format: functional
Micrococcus luteus = assay: Antimicrobial activity against Micrococcus luteus DSM 1790 by serial dilution assay; format: functional
A-431 = assay: Cytotoxicity against human A431 cells by MTT assay; format: functional, cell-based
KB 3-1 = assay: Cytotoxicity against human KB3-1 cells by MTT assay; format: functional, cell-based
L929 = assay: Cytotoxicity against mouse L929 cells by MTT assay; format: cell-based
MCF7 = assay: Cytotoxicity against human MCF7 cells by MTT assay; format: functional, cell-based

SMILES: CC1=C(O)C(=O)[C@]23C(=O)[C@H]1[C@H](O)[C@@H](C)[C@H]2CC[C@H]3C
Activity (Rhodotorula glutinis): Active

SMILES: CC1=C/C(=C2/[C@H](C)CC[C@@H]2C(C)C)OC1=O
MIC (Staphylococcus aureus): 33.3 to 66.7 µg/mL (≈ 151 to 303 µM) | MIC (Bacillus subtilis): 33.3 to 66.7 µg/mL (≈ 151 to 303 µM) | Activity (Rhodotorula glutinis): Active | MIC (Mucor plumbeus): 8.3 µg/mL (≈ 37.7 µM) | MIC (Escherichia coli): 33.3 to 66.7 µg/mL (≈ 151 to 303 µM) | MIC (Micrococcus luteus): 33.3 to 66.7 µg/mL (≈ 151 to 303 µM)

SMILES: Cc1cc(C2=C(C(C)C)CC[C@H]2C)oc(=O)c1O
MIC (Staphylococcus aureus): 33.3 to 66.7 µg/mL (≈ 134 to 269 µM) | pIC50 (A-431): 4.92 | MIC (Bacillus subtilis): 33.3 to 66.7 µg/mL (≈ 134 to 269 µM) | pIC50 (KB 3-1): 5.54 | Activity (Rhodotorula glutinis): Active | pIC50 (L929): 5.25 | MIC (Escherichia coli): 33.3 to 66.7 µg/mL (≈ 134 to 269 µM) | pIC50 (MCF7): 5.03 | MIC (Micrococcus luteus): 33.3 to 66.7 µg/mL (≈ 134 to 269 µM)

SMILES: Cc1cc([C@]23OC[C@@H](C)[C@H]2CC[C@H]3C)oc(=O)c1O
Activity (Rhodotorula glutinis): Active

SMILES: CC1=CC(=O)[C@]2(C1=O)[C@H](C)CC[C@@H]2[C@H](C)CO
Activity (Rhodotorula glutinis): Active

SMILES: CC1=C/C(=C2\[C@H](C)CC[C@@H]2[C@H](C)CO)OC1=O
Activity (Rhodotorula glutinis): Active

MIC (Mucor plumbeus): 8.3 µg/mL (≈ 35.1 µM)
SMILES: CC1=C/C(=C2/[C@H](C)CC[C@@H]2[C@H](C)CO)OC1=O
Activity (Rhodotorula glutinis): Active

— ChEMBL document CHEMBL4613230, “Antifungal Sesquiterpenoids, Rhodocoranes, from Submerged Cultures of the Wrinkled Peach Mushroom, Rhodotus palmatus” (J Nat Prod, 2020)
